In US7112590B2, “Thrombin inhibitors” (LEK Pharmaceuticals d.d., priority 2000, dated 2006):

Compound	melting point
Cl.Cl.Nc1nc2c(s1)CC(NC(=O)[C@@H]1CCCN1C(=O)[C@H](N)Cc1ccc(Cl)c(Cl)c1)CC2 (stereo partly shown)	166 to 169 °C
Cl.Cl.Nc1ncc2c(n1)CCC(NC(=O)[C@@H]1CCCN1C(=O)[C@H](N)C(c1ccccc1)c1ccccc1)C2 (stereo partly shown)	199 to 202 °C
Cl.Cl.N[C@H](C(=O)N1CCC[C@H]1C(=O)NC1CCc2n[nH]cc2C1)C(c1ccccc1)c1ccccc1 (stereo partly shown)	195 to 198 °C
O=C(NC1CCc2n[nH]cc2C1)[C@@H]1CCCN1C(=O)[C@@H](Cc1ccccc1)NS(=O)(=O)Cc1ccccc1 (stereo partly drawn) [Example 9, (2S)-1-{(2R)-2-[(Benzylsulfonyl)amino]-3-phenylpropanoyl}-N-(4,5,6,7-tetrahydro-2H-indazol-5-yl)-2-pyrrolidinecarboxamide]	114 to 116 °C
Nc1nc2c(s1)CC(NC(=O)[C@@H]1CCCN1C(=O)[C@@H](CC1CCCCC1)NS(=O)(=O)Cc1ccccc1)CC2 (stereo partly drawn) [Example 28, (2S)-N-(2-Amino-4,5,6,7-tetrahydro-1,3-benzothiazol-6-yl)-1-{(2R)-2-[(benzylsulfonyl)amino]-3-cyclohexylpropanoyl}-2-pyrrolidinecarboxamide]	127 to 130 °C
Nc1ncnc2ccc(NC(=O)[C@@H]3CCCN3C(=O)CNC(c3ccccc3)(c3ccccc3)c3ccccc3)cc12 [Example 42, (2S)-N-(4-amino-6-quinazolinyl)-1-{2-[(triphenylmethyl)amino]acetyl}-2-pyrrolidinecarboxamide]	> 250 °C
CC(C)(C)OC(=O)CN(C(=O)OC(C)(C)C)[C@H](CC1CCCCC1)C(=O)N1CCC[C@H]1C(=O)NC1CCc2nc(N)sc2C1 (stereo partly drawn) [Example 70, tert-Butyl 2-[[(1R)-2-((2S)-2-{[(2-amino-4,5,6,7-tetrahydro-1,3-benzothiazol-6-yl)amino]carbonyl}pyrrolidinyl)-1-(cyclohexylmethyl)-2-oxoethyl](tert-butoxycarbonyl)amino]acetate]	95 to 101 °C
Cl.Cl.Nc1ncc2c(n1)CCC(NC(=O)[C@@H]1CCCN1C(=O)[C@@H](N)C(c1ccccc1)c1ccccc1)C2 (stereo partly shown)	212 to 215 °C
Nc1nc2ccc(NC(=O)CNC(=O)[C@@H](Cc3ccccc3)NS(=O)(=O)Cc3ccccc3)cc2s1 [Example 39, (2R)-N-{2-[(2-Amino-1,3-benzothiazol-6-yl)amino]-2-oxoethyl}-2-[(benzylsulfonyl)amino]-3-phenylpropanamide]	127 to 130 °C
CC(C)(C)OC(=O)N[C@H](C(=O)N1CCC[C@H]1C(=O)NC1CCc2nc(N)ncc2C1)C(c1ccccc1)c1ccccc1 (stereo partly drawn) [Example 13, tert-Butyl (1S)-2-((2S)-2-{[(2-amino-5,6,7,8-tetrahydro-6-quinazolinyl)amino]carbonyl}pyrrolidinyl)-1-benzhydryl-2-oxoethylcarbamate]	127 to 130 °C
O=C(NC1CCc2n[nH]cc2C1)[C@@H]1CCCN1C(=O)[C@@H](CC1CCCCC1)NS(=O)(=O)Cc1ccccc1 (stereo partly drawn) [Example 22, (2S)-1-{(2R)-2-[(Benzylsulfonyl)amino]-3-cyclohexylpropanoyl}-N-(4,5,6,7-tetrahydro-2H-indazol-5-yl)-2-pyrrolidinecarboxamide]	106 to 109 °C
Cl.Cl.Nc1nc2c(s1)CC(NC(=O)[C@@H]1CCCN1C(=O)[C@H](N)Cc1ccccc1)CC2 (stereo partly shown)	225 to 228 °C
Nc1nc2ccc(NC(=O)[C@@H]3CCCN3C(=O)[C@@H](Cc3ccccc3)NS(=O)(=O)Cc3ccccc3)cc2s1 [Example 38, (2S)-N-(2-Amino-1,3-benzothiazol-6-yl)-1-{(2R)-2-[(benzylsulfonyl)amino]-3-phenylpropanoyl}-2-pyrrolidinecarboxamide]	130 to 133 °C
C[C@H](NC(=O)[C@@H](Cc1ccccc1)NS(=O)(=O)Cc1ccccc1)C(=O)NC1CCc2nc(N)sc2C1 (stereo partly drawn) [Example 32, (2R)-N-{(1S)-2-[(2-Amino-4,5,6,7-tetrahydro-1,3-benzothiazol-6-yl)amino]-1-methyl-2-oxoethyl}-2-[(benzylsulfonyl)amino]-3-phenylpropanamide]	122 to 125 °C
CC(C)(C)OC(=O)N[C@@H](C(=O)N1CCC[C@H]1C(=O)NC1CCc2nc(N)ncc2C1)C(c1ccccc1)c1ccccc1 (stereo partly drawn) [Example 23, tert-Butyl (1R)-2-((2S)-2-{[(2-amino-5,6,7,8-tetrahydro-6-quinazolinyl)amino]carbonyl}pyrrolidinyl)-1-benzhydryl-2-oxoethylcarbamate]	128 to 131 °C
CC(C)(C)OC(=O)N[C@@H](C(=O)N1CCC[C@H]1C(=O)NC1CCc2n[nH]cc2C1)C(c1ccccc1)c1ccccc1 (stereo partly drawn) [Example 55, tert-Butyl (1R)-1-benzhydryl-2-oxo-2-{(2S)-2-[(4,5,6,7-tetrahydro-2H-indazol-5-ylamino)carbonyl]pyrrolidinyl}ethylcarbamate]	119 to 122 °C
CC(C)(C)OC(=O)N[C@H](C(=O)N1CCC[C@H]1C(=O)NC1CCc2nc(N)sc2C1)C(c1ccccc1)c1ccccc1 (stereo partly drawn) [Example 35, tert-Butyl (1S)-2-((2S)-2-{[(2-amino-4,5,6,7-tetrahydro-1,3-benzothiazol-6-yl)amino]carbonyl}pyrrolidinyl)-1-benzhydryl-2-oxoethylcarbamate]	127 to 130 °C
CC(C)(C)OC(=O)N[C@H](Cc1ccccc1)C(=O)N1CCC[C@H]1C(=O)NC1CCc2nc(N)sc2C1 (stereo partly drawn) [Example 25, tert-Butyl (1R)-2-((2S)-2-{[(2-amino-4,5,6,7-tetrahydro-1,3-benzothiazol-6-yl)amino]carbonyl}pyrrolidinyl)-1-benzyl-2oxoethylcarbamate]	120 to 123 °C
Nc1ncc2c(n1)CCC(NC(=O)[C@@H]1CCCN1C(=O)[C@@H](CC1CCCCC1)NS(=O)(=O)Cc1ccccc1)C2 (stereo partly drawn) [Example 21, (2S)-N-(2-Amino-5,6,7,8-tetrahydro-6-quinazolinyl)-1-{(2R)-2-[(benzylsulfonyl)amino]-3-cyclohexylpropanoyl}-2-pyrrolidinecarboxamide]	114 to 117 °C
Nc1ncc2c(n1)CCC(CNC(=O)[C@@H]1CCCN1C(=O)[C@@H](Cc1ccccc1)NS(=O)(=O)Cc1ccccc1)C2 (stereo partly drawn) [Example 12, (2S)-N-[(2-Amino-5,6,7,8-tetrahydro-6-quinazolinyl)methyl]-1-{(2R)-2-[(benzylsulfonyl)amino]-3-phenylpropanoyl}-2-pyrrolidinecarboxamide]	118 to 121 °C
Cl.Cl.Nc1ncc2c(n1)CCC(CNC(=O)[C@@H]1CCCN1C(=O)[C@H](N)Cc1ccc(Cl)c(Cl)c1)C2 (stereo partly shown)	169 to 172 °C

The next lines start with the values.

melting point	Compound
190 to 193 °C	Cl.Cl.N[C@@H](C(=O)N1CCC[C@H]1C(=O)NC1CCc2n[nH]cc2C1)C(c1ccccc1)c1ccccc1 (stereo partly shown)
128 to 131 °C	Nc1nc2c(s1)CC(NC(=O)[C@@H]1CCCN1C(=O)[C@@H](Cc1ccccc1)NS(=O)(=O)c1ccc3ccccc3c1)CC2 (stereo partly drawn) [Example 30, (2S)-N-(2-Amino-4,5,6,7-tetrahydro-1,3-benzothiazol-6-yl)-1-{(2R)-2-[(2-naphthylsulfonyl)amino]-3-phenylpropanoyl}-2-pyrrolidinecarboxamide]
100 to 103 °C	CC(C)(C)OC(=O)N[C@H](Cc1ccc(Cl)c(Cl)c1)C(=O)N1CCC[C@H]1C(=O)NCC1CCc2n[nH]cc2C1 (stereo partly drawn) [Example 59, tert-Butyl (1R)-1-(3,4-dichlorobenzyl)-2-oxo-2-((2S)-2-{[(4,5,6,7-tetrahydro-2H-indazol-5-ylmethyl)amino]carbonyl}pyrrolidinyl)ethylcarbamate]
144 to 147 °C	Cl.Cl.O=C(O)CN[C@H](CC1CCCCC1)C(=O)N1CCC[C@H]1C(=O)NCC1CCc2n[nH]cc2C1 (stereo partly shown)
110 to 113 °C	CC(C)(C)OC(=O)N[C@H](Cc1ccccc1)C(=O)N1CCC[C@H]1C(=O)NC1CCc2nc(N)ncc2C1 (stereo partly shown) [Example 7]
108 to 110 °C	CC(C)(C)OC(=O)N[C@H](Cc1ccccc1)C(=O)N1CCC[C@H]1C(=O)NC1CCc2n[nH]cc2C1 (stereo partly drawn) [Example 10, tert-Butyl (1R)-1-benzyl-2-oxo-2-{(2S)-2-[(4,5,6,7-tetrahydro-2H-indazol-5-ylamino)carbonyl]pyrrolidinyl}ethylcarbamate]
114 to 117 °C	CC(C)(C)OC(=O)N[C@H](Cc1ccc(Cl)c(Cl)c1)C(=O)N1CCC[C@H]1C(=O)NC1CCc2nc(N)ncc2C1 (stereo partly drawn) [Example 14, tert-Butyl (1R)-2-((2S)-2-{[(2-amino-5,6,7,8-tetrahydro-6-quinazolinyl)amino]carbonyl}pyrrolidinyl)-1-(3,4-dichlorobenzyl)-2-oxoethylcarbamate]
113 to 116 °C	CC(C)(C)OC(=O)N[C@@H](C(=O)N1CCC[C@H]1C(=O)NCC1CCc2n[nH]cc2C1)C(c1ccccc1)c1ccccc1 (stereo partly drawn) [Example 64, tert-Butyl (1R)-1-benzhydryl-2-oxo-2-((2S)-2-{[(4,5,6,7-tetrahydro-2H-indazol-5-ylmethyl)amino]carbonyl}pyrrolidinyl)ethylcarbamate]
203 to 206 °C	Cl.Cl.N[C@H](Cc1ccccc1)C(=O)N1CCC[C@H]1C(=O)NC1CCc2n[nH]cc2C1 (stereo partly shown)
127 to 130 °C	CC(C)(C)OC(=O)N[C@@H](C(=O)N1CCC[C@H]1C(=O)NCC1CCc2nc(N)ncc2C1)C(c1ccccc1)c1ccccc1 (stereo partly drawn) [Example 67, tert-Butyl (1R)-2-[(2S)-2-({[(2-amino-5,6,7,8-tetrahydro-6-quinazolinyl)methyl]amino}carbonyl)pyrrolidinyl]-1-benzhydryl-2-oxoethylcarbamate]
126 to 129 °C	Nc1nc2c(s1)CC(NC(=O)[C@@H]1CCCN1C(=O)[C@@H](Cc1ccccc1)NS(=O)(=O)Cc1ccccc1)CC2 (stereo partly drawn) [Example 27, (2S)-N-(2-amino-4,5,6,7-tetrahydro-1,3-benzothiazol-6-yl)-1-{(2R)-2-[(benzylsulfonyl)amino]-3-phenylpropanoyl}-2-pyrrolidinecarboxamide]
203 to 205 °C	Nc1nc2c(s1)CC(CNC(=O)[C@@H]1CCCN1C(=O)[C@@H](CC1CCCCC1)NS(=O)(=O)Cc1ccccc1)CC2 (stereo partly drawn) [Example 69, (2S)-N-[(2-Amino-4,5,6,7-tetrahydro-1,3-benzothiazol-6-yl)methyl]-1-{(2R)-2-[(benzylsulfonyl)amino]-3-cyclohexylpropanoyl}-2-pyrrolidinecarboxamide]
145 to 148 °C	Cl.N[C@H](Cc1ccc(Cl)c(Cl)c1)C(=O)N1CCC[C@H]1C(=O)NCC1CCc2n[nH]cc2C1 (stereo partly shown)
